Measurements published in publication PMC4931907 (eLife, 2016).

Key:
[1] = system: Kasumi-1 cells; experiment: Growth and apoptosis of Kasumi-1 cells (trypan blue, annexin V/7AAD); type: cell-based, human; details: for Apoptosis, annexin V/7AAD double staining: Kasumi-1, 24 hr
Description: (§1) Previously, we reported that the leukemogenicity of the AML1-ETO fusion protein, generated by a t(8;21) translocation in acute myelogenous leukemia, is regulated by p300-mediated acetylation of lysine 43 of the fusion protein ([Wang et al., 2011]).
(§2) Figure 4. […] (B) Kasumi-1 and AE9a cells treated or not with salicylate were counted by trypan-blue exclusion under light microscopy. […] The percentage of sub-G1 cells is shown. […] Cells were counted by trypan-blue exclusion under light microscopy. […] DOI: http://dx.doi.org/10.7554/eLife.11156.011
HEK293T cells (ATCC) were maintained in DMEM supplemented with 10% FCS. The viability of Kasumi-1 cells and AE9a mouse leukemia cells was assessed in triplicate by trypan blue exclusion. The Kasumi cell line was isolated and characterized by one of the coauthors (S. Nimer) ([Becker et al., 2008]). All cell lines were tested annually for mycoplasma contamination. Only negative mycoplasma cultures were used during the conduct of these experiments.
Apoptosis was analyzed with an Annexin V-APC/7AAD Apoptosis kit (Becton-Dickinson) according to manufacturer’s instructions. To assess the distribution of nuclear DNA content in the cell-cycle analysis, cells were collected, washed in PBS, fixed overnight in 75% ethanol at –20°C, treated with 1% RNase A for at least 15 min at 37°C, and stained with […] propidium iodide. To monitor CD34 expression, the cells were stained with an allophycocyanin-conjugated anti-CD34 antibody (Becton Dickinson). To monitor CD11b expression, the cells were stained with a phycoerythrin-conjugated anti-CD11b antibody (Beckman-Coulter). To monitor C-kit and Mac-1 expression, the cells were stained with allophycocyanin-conjugated anti-C-kit and phycoerythrin-conjugated anti-Mac-1 antibodies (Becton-Dickinson). Cells were sorted with a Becton-Dickinson FACSCalibur, and the data were analyzed with FlowJo software.

[2] = molecular target: T1, p300 (Homo sapiens, UniProt Q09472); experiment: In vitro HAT assay with recombinant p300, histones and 14C acetyl-CoA; type: biochemical; details: for IC50: in vitro HAT assay, recombinant p300 and histones, read-out: IC50, p300 acetyltransferase activity
T1 construct: in vitro acetylation assays with purified histones and a recombinant p300 catalytic domain; purchased Enzo Life Sciences
T1 sequence (Q09472 1287-1663 limits assumed): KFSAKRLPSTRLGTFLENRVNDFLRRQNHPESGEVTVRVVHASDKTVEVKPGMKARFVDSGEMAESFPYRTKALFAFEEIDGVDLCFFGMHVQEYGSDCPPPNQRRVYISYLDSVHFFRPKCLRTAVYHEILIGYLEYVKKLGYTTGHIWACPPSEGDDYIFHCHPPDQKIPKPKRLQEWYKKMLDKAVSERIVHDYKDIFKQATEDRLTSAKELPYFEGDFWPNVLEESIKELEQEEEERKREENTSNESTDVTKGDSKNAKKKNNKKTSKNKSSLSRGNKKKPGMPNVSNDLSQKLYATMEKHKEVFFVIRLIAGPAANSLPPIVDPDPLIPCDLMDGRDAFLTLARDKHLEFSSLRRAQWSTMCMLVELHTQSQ
Description: To determine whether salicylate inhibits p300 and other acetyltransferases, we used in vitro acetylation assays with purified histones and a recombinant p300 catalytic domain.
Figure 1. Salicylate inhibits CBP/p300 in vitro. (A) Recombinant p300, CBP, GCN5, or PCAF and histones were incubated with ^14C-labeled acetyl-CoA with or without sodium salicylate, separated by SDS-PAGE, analyzed by autoradiography, and quantified with Image J software. Acetylation levels are relative to those in untreated controls. (B) Thermal stability assay for sodium salicylate binding to the p300 HAT domain. Tm, melting temperature. (C) and (D) Lineweaver-Burk plots showing kinetic analysis of p300 acetyltransferase inhibition by sodium salicylate. Histone acetylation was measured with several concentrations of acetyl-CoA (C) or histone (D) in the presence or absence of sodium salicylate. DOI: http://dx.doi.org/10.7554/eLife.11156.003 Figure 1—figure supplement 1. […] (A) Dose-response data for inhibition of p300 by salicylate and salicyl-CoA. Acetylation of an H4(3–14) peptide was monitored using direct microfluidic mobility shift analysis as previously described ([Montgomery et al., 2014]; [Fanslau et al., 2010]). Error is given as the 95% confidence interval. […] Error is given as the 95% confidence interval. DOI: http://dx.doi.org/10.7554/eLife.11156.004 [drawing 1] TEXT PRINTED IN THE PICTURE: (A) Salicylate: p300 IC50 (mM): 6.12; Confidence Interval [CI95] (mM): 5.2–7.2 | (A) Salicyl-CoA: p300 IC50 (mM): […]; Confidence Interval [CI95] […] (mM): 0.78–1.4 | (B) Diflunisal-CoA: p300 IC50 (mM): 0.02; Confidence Interval [CI95] (mM): 0.02–0.03
Recombinant HAT ([…]), either p300, CBP, PCAF, or GCN5 (Enzo Life Sciences), and 10 µg of histones (Sigma) were incubated with sodium salicylate (Sigma) in reaction buffer (50 mM HEPES, pH 8.0, 10% glycerol, 1 mM) at 30°C for 30 min and then with 0.1 mCi of ^14C acetyl-CoA at 30°C for 60 min. Reactions were stopped by adding 6x sample buffer and analyzed by SDS-PAGE. The gels were dried, and signals were obtained by autoradiography and quantified with Image J software. To quantify acetylated histone levels, we generated a standard curve from signals of lanes loaded with […] of ^14C labeled histones.

[3] = system: AML1-ETO fusion protein; experiment: AML1-ETO K24/K43 acetylation in Kasumi-1 cells (immunoprecipitation, Western blot); type: cell-based, human; details: Kasumi-1, 24 hr; salicylate 4 or 8 mM, diflunisal 100 or 200 μM
Description: as §1, §2
AML1-ETO protein in the lysate was immunoprecipitated with an anti-ETO antibody (Santa Cruz Biotechnology). Antibodies against AML1 and acetylated AML1-ETO K24/K43 (generated in the Nimer lab) were used for Western blotting.

| Compound | Apoptosis, annexin V/7AAD double staining [1] | Kasumi-1 cell growth ([1]; trypan-blue exclusion counts) | IC50 [2] | K24 and K43 acetylation of AML1-ETO [3] | Concentration inhibiting cell proliferation ([1]; Kasumi-1, trypan-blue exclusion counts) | Mode of p300 inhibition against acetyl-CoA ([2]; Lineweaver-Burk, various concentrations of acetyl-CoA) | Mode of p300 inhibition against histones ([2]; Lineweaver-Burk, various concentrations of histone) |
| --- | --- | --- | --- | --- | --- | --- | --- |
| O=C(O)c1cc(-c2ccc(F)cc2F)ccc1O [diflunisal] | increased apoptosis in a dose-dependent manner | inhibition of growth | 0.996 mM | decreased in a dose-dependent manner | – | – | – |
| O=C(O)c1ccccc1O [salicylate, salicylic acid] | increased apoptosis | – | 10.2 mM | decreased in a dose-dependent manner | ≥ 1 mM | direct competitive p300 inhibition against acetyl-CoA | noncompetitive inhibition against histones |
